Measurements published in patent US20050233967A1, “Compositions, systems, and methods for focusing a cell-mediated immune response” (priority 2002, published 2005).

Columns and labels:
[1] = test system: IFN-γ; test: IFN-γ Levels in Chronic Opisthorchiasis Patients (ProCon IFN-γ assay, 492 nm); assay type: in vivo, human; conditions: Second Group: praziquantel only, two weeks after treatment
Text: Forty-five (45) individuals with chronic opisthorchiasis were split into two groups: a first group including twenty-five (25) individuals and a second group including twenty (20) individuals. The individuals of both groups received conventional praziquantel treatment, an anti-parasitic, or antihelminthic, drug which is used in the treatment of opisthorchiasis and is available under the trade name BILTHRICIDE™ from Bayer AG of Leverkusen, Germany. In addition to praziquantel, two capsules of TRANSFER FACTOR PLUS were administered to the individuals of the first group following praziquantel treatment, three times daily for seven days. The individuals of the second group were only treated with praziquantel.
Levels of various cytokines, including γ-interferon (IFN-γ), antibodies, and immune complexes were determined, by known processes, for each the individuals prior to therapy and two weeks following TRANSFER FACTOR PLUS therapy in the individuals of the […] was discontinued. The following TABLE 4 lists the collective measures of IFN-γ in both groups, as determined by use of the ProCon IFN-γ assay available from Protein Contour of St. Petersburg, Russia, and photometrically measured at a wavelength of 492 nm. TABLE 4 also includes a collective measure of the IFN-γ levels of fifteen (15) “normal” blood donors.

[2] = test system: IFN-γ; test: IFN-γ Levels in Chlamydia Patients (ProCon IFN-γ assay, 492 nm); assay type: in vivo, human; conditions: urogenital chlamydiosis patients, First Group: claritomycin, doxycyclin and ofloxacin in succession; after treatment
Method: Among other cytokine levels, levels of IFN-γ were determined for three groups, each including fifteen (15) individuals, and compared with IFN-γ levels of the aforementioned group of fifteen (15) “normal” blood donors. The individuals of a first group were treated with 500 mg of claritomycin twice daily for ten (10) to fourteen (14) days, 100 mg of doxycyclin once daily for ten (10) days, and 200 mg of ofloxacin twice daily for ten (10) days, with the drugs having been administered in succession. The individuals of the second group received 500 mg of claritomycin twice daily for ten (10) to fourteen (14) days and one capsule of TRANSFER FACTOR PLUS three times each day for ten (10) days, with treatment with the claritomycin and TRANSFER FACTOR PLUS beginning on the same day. In the third group, each individual was treated with 500 mg of claritomycin twice daily for ten (10) to fourteen (14) days and one capsule of TRANSFER FACTOR thrice daily for ten (10) days, with administration of the claritomycin and TRANSFER FACTOR PLUS having begun on the same day. […] The following TABLE 5 lists the collective measures of IFN-γ in all three groups, as determined by use of the ProCon IFN-γ assay available from Protein Contour and photometrically measured at a wavelength of 492 nm. […]

SMILES | IFN-γ level [1] | IFN-γ level [2]
O=C(C1CCCCC1)N1CC(=O)N2CCc3ccccc3C2C1 (centres unmarked) [praziquantel] | 51.4 ± 6.3 | 
CC[C@H]1OC(=O)[C@H](C)[C@@H](O[C@H]2C[C@@](C)(OC)[C@@H](O)[C@H](C)O2)[C@H](C)[C@@H](O[C@@H]2O[C@H](C)C[C@H](N(C)C)[C@H]2O)[C@](C)(OC)C[C@@H](C)C(=O)[C@H](C)[C@@H](O)[C@]1(C)O [claritomycin] |  | 31.4 ± 6.1
